Assay results published in patent US11046716B2, “Beta-lactamase inhibitors” (priority 2015, dated 2021).

Assays:
KPC-2 = molecular target: T1, KPC-2 (Klebsiella pneumoniae, UniProt Q9F663); experiment: β-lactamase enzyme inhibition assay, KPC-2 (imipenem substrate); type: biochemical; conditions: Class A; imipenem substrate, 300 nm; read-out: KPC-2
T1 construct: made in house; host or cells: E. coli BL21(DE3)
Method in brief: (§1)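 Native untagged β-lactamases were expressed in E. coli BL21(DE3), then purified by cation exchange and gel filtration. Enzyme was preincubated with inhibitor for 15 min at 37 °C before substrate was added. Imipenem (A300) served KPC-2 and cefotaxime (A260) served SHV-5. IC50 was taken from initial hydrolysis rates relative to no-inhibitor controls.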

AmpC = molecular target: T2, AmpC (Enterobacter cloacae, UniProt P05364); experiment: β-lactamase enzyme inhibition assay, p99 AmpC (nitrocefin substrate); type: biochemical
T2 construct: made in house; host or cells: E. coli BL21(DE3)
T2 sequence (P05364 21-381): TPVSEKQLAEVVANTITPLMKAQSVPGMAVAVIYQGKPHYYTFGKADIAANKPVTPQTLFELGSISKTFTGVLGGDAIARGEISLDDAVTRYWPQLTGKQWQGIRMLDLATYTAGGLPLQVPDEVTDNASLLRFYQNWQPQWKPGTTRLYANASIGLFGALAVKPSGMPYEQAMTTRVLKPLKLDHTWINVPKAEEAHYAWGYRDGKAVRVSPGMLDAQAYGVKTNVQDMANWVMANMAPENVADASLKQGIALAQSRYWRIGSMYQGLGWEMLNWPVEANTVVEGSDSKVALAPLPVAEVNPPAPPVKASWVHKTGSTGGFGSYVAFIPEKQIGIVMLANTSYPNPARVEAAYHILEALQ
Method in brief: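 Native untagged β-lactamases were expressed in E. coli BL21(DE3), then purified by cation exchange and gel filtration. Enzyme was preincubated with inhibitor for 15 min at 37 °C before substrate was added. IC50 was taken from initial hydrolysis rates relative to no-inhibitor controls.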

VIM-2 = molecular target: T3, VIM-2 (Escherichia coli, UniProt Q5U7L7); experiment: β-lactamase enzyme inhibition assay, VIM-2 (nitrocefin substrate); type: biochemical; conditions: Class B; nitrocefin substrate, 486 nm; read-out: VIM-2
T3 construct: made in house; host or cells: E. coli BL21(DE3)
Method in brief: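 Purified VIM-2 preincubated with inhibitor for 15 min at 37° C, then nitrocefin (100 μM final) added and absorbance at 486 nm followed for 10 min. Maximum hydrolysis rates compared with inhibitor-free controls; IC50 fitted from percent inhibition across inhibitor concentrations.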

[1] = tested on: E. coli expressing the Class A Extended Spectrum Beta-Lactamase (ESBL) CTX-M-15; experiment: Broth microdilution MIC assay with ceftazidime, E. coli CTX-M-15; type: cell-based; conditions: Fixed CAZ (ceftazidime) 4 μg/mL; E. coli ESBL4 CTX-M-15
Method in brief: (§2)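 Test compounds in 2-fold dilutions (16 to 0.125 μg/mL final) in CAMHB were combined with a β-lactam at a static 4 μg/ml final. Plates were inoculated per CLSI broth microdilution with the β-lactamase-producing strain (pre-grown 3-5 h) and incubated 16-20 h at 37° C. MIC of test compound was read visually.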

[2] = tested on: P. aeruginosa expressing the Class B carbapenemase VIM-2; experiment: Broth microdilution MIC assay with meropenem, P. aeruginosa VIM-2; type: cell-based; conditions: Fixed Mero (meropenem) 4 μg/mL; P. aerug. 2775 VIM-2
Method in brief: as §2

[3] = tested on: E. cloacae expressing the Class C P99; experiment: Broth microdilution MIC assay with ceftazidime, E. cloacae P99; type: cell-based; conditions: Fixed CAZ (ceftazidime) 4 μg/mL; E. cl. 144200 p99 AmpC
Method in brief: as §2

[4] = tested on: K. pneumoniae expressing the Class A carbapenemase KPC-2; experiment: Broth microdilution MIC assay with meropenem, K. pneumoniae KPC-2; type: cell-based; conditions: Fixed Mero (meropenem) 4 μg/mL; K. p. 156319 KPC-3
Method in brief: as §2

[5] = tested on: K. pneumoniae producing the Class D carbapenemase OXA-48; experiment: Broth microdilution MIC assay with meropenem, K. pneumoniae OXA-48; type: cell-based; conditions: Fixed Mero (meropenem) 4 μg/mL; K. p. 11978 OXA-48
Method in brief: as §2

[6] = tested on: K. pneumoniae expressing the class A carbapenemase KPC-2 and the class B carbapenemase VIM-4; experiment: Broth microdilution MIC assay with meropenem, K. pneumoniae KPC-2 and VIM-4; type: cell-based; conditions: Fixed Mero (meropenem) 4 μg/mL; K. p. A-1797 KPC-2 VIM-4
Method in brief: as §2

SHV-5 = molecular target: T4, SHV-5 (Klebsiella pneumoniae, UniProt P0A3M1); experiment: β-lactamase enzyme inhibition assay, SHV-5 (cefotaxime substrate); type: biochemical
T4 construct: made in house; host or cells: E. coli BL21(DE3)
T4 sequence (P0A3M1 22-286): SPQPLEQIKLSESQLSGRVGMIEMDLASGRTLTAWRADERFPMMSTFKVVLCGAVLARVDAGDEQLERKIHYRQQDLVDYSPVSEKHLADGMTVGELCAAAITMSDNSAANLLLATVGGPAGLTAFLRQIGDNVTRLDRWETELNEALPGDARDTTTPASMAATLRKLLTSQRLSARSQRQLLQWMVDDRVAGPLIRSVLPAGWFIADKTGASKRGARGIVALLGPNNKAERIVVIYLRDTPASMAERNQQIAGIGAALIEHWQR
Method in brief: as §1

OXA-48 = OXA-48 (UniProt Q6XEC0); experiment: β-lactamase enzyme inhibition assay, Class D oxacillinase; type: biochemical; conditions: read-out: OXA-48

T1 sequence (Q9F663 25-293, looked up): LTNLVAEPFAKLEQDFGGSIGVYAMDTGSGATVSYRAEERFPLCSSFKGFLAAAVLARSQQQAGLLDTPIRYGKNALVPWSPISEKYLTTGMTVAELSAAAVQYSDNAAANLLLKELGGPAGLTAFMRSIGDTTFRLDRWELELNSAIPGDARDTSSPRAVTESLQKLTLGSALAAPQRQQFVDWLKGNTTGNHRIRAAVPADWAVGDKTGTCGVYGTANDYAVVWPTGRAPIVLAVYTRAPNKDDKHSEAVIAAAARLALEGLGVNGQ

| Compound | IC50 (KPC-2) | IC50 (AmpC) | IC50 (VIM-2) | MIC (μg/mL) of Exemplary Compounds in presence of fixed β-lactams: E. coli ESBL4 CTX-M-15 [1] | MIC (μg/mL) of Exemplary Compounds in presence of fixed β-lactams: P. aerug. 2775 VIM-2 [2] | MIC (μg/mL) of Exemplary Compounds in presence of fixed β-lactams: E. cl. 144200 p99 AmpC [3] | MIC (μg/mL) of Exemplary Compounds in presence of fixed β-lactams: K. p. 156319 KPC-3 [4] | MIC (μg/mL) of Exemplary Compounds in presence of fixed β-lactams: K. p. 11978 OXA-48 [5] | MIC (μg/mL) of Exemplary Compounds in presence of fixed β-lactams: K. p. A-1797 KPC-2 VIM-4 [6] | IC50 (SHV-5) | IC50 (OXA-48) |
| --- | --- | --- | --- | --- | --- | --- | --- | --- | --- | --- | --- |
| NCCCn1nnnc1CC(=O)N[C@H]1Cc2cccc(C(=O)O)c2OB1O [Example 50, (R)-3-(2-(1-(3-aminopropyl)-1H-tetrazol-5-yl)acetamido)-2-hydroxy-3,4-dihydro-2H-benzo[e][1,2]oxaborinine-8-carboxylic acid] | < 100 nM | < 100 nM | < 100 nM | C (C represents an MIC of <1 μg/mL) | C (C represents an MIC of <1 μg/mL) | C (C represents an MIC of <1 μg/mL) | C (C represents an MIC of <1 μg/mL) | B (B represents an MIC between 1 and 16 μg/mL inclusive) | C (C represents an MIC of <1 μg/mL) | < 100 nM | 1000 to 10000 nM |
| NCCCn1nnc(CC(=O)N[C@H]2Cc3cccc(C(=O)O)c3OB2O)n1 [Example 51] | < 100 nM | < 100 nM | < 100 nM | C (C represents an MIC of <1 μg/mL) | C (C represents an MIC of <1 μg/mL) | C (C represents an MIC of <1 μg/mL) | C (C represents an MIC of <1 μg/mL) | B (B represents an MIC between 1 and 16 μg/mL inclusive) | B (B represents an MIC between 1 and 16 μg/mL inclusive) | < 100 nM | 1000 to 10000 nM |
| CC(C)NCCn1nnnc1CC(=O)N[C@H]1Cc2cccc(C(=O)O)c2OB1O [Example 52, (R)-2-hydroxy-3-(2-(1-(2-(isopropylamino)ethyl)-1H-tetrazol-5-yl)acetamido)-3,4-dihydro-2H-benzo[e][1,2]oxaborinine-8-carboxylic acid] | < 100 nM | < 100 nM | < 100 nM | C (C represents an MIC of <1 μg/mL) | C (C represents an MIC of <1 μg/mL) | C (C represents an MIC of <1 μg/mL) | C (C represents an MIC of <1 μg/mL) | B (B represents an MIC between 1 and 16 μg/mL inclusive) | B (B represents an MIC between 1 and 16 μg/mL inclusive) | < 100 nM | 1000 to 10000 nM |
| N=C(N)NCCCn1nnnc1CC(=O)N[C@H]1Cc2cccc(C(=O)O)c2OB1O [Example 53, (R)-3-(2-(1-(3-guanidinopropyl)-1H-tetrazol-5-yl)acetamido)-2-hydroxy-3,4-dihydro-2H-benzo[e][1,2]oxaborinine-8-carboxylic acid] | < 100 nM | < 100 nM | < 100 nM | C (C represents an MIC of <1 μg/mL) | C (C represents an MIC of <1 μg/mL) | C (C represents an MIC of <1 μg/mL) | C (C represents an MIC of <1 μg/mL) | B (B represents an MIC between 1 and 16 μg/mL inclusive) | C (C represents an MIC of <1 μg/mL) | < 100 nM | 1000 to 10000 nM |
| CCn1nnnc1CC(=O)N[C@H]1Cc2cccc(C(=O)O)c2OB1O [Example 54, (R)-3-(2-(1-ethyl-1H-tetrazol-5-yl)acetamido)-2-hydroxy-3,4-dihydro-2H-benzo[e][1,2]oxaborinine-8-carboxylic acid] | < 100 nM | < 100 nM | 100 to 1000 nM | C (C represents an MIC of <1 μg/mL) | B (B represents an MIC between 1 and 16 μg/mL inclusive) | C (C represents an MIC of <1 μg/mL) | B (B represents an MIC between 1 and 16 μg/mL inclusive) | B (B represents an MIC between 1 and 16 μg/mL inclusive) | B (B represents an MIC between 1 and 16 μg/mL inclusive) | < 100 nM | 1000 to 10000 nM |
| NCc1cc(-c2cn(CC(=O)N[C@H]3Cc4cccc(C(=O)O)c4OB3O)nn2)cs1 [Example 55, (R)-3-(2-(4-(5-(aminomethyl)thiophen-3-yl)-1H-1,2,3-triazol-1-yl)acetamido)-2-hydroxy-3,4-dihydro-2H-benzo[e][1,2]oxaborinine-8-carboxylic acid] | < 100 nM | < 100 nM | 100 to 1000 nM | C (C represents an MIC of <1 μg/mL) | B (B represents an MIC between 1 and 16 μg/mL inclusive) | C (C represents an MIC of <1 μg/mL) | C (C represents an MIC of <1 μg/mL) | B (B represents an MIC between 1 and 16 μg/mL inclusive) | B (B represents an MIC between 1 and 16 μg/mL inclusive) | < 100 nM | 100 to 1000 nM |
| O=C(Cn1cc([N+](=O)[O-])cn1)N[C@H]1Cc2cccc(C(=O)O)c2OB1O [Example 56, (R)-2-hydroxy-3-(2-(4-nitro-1H-pyrazol-1-yl)acetamido)-3,4-dihydro-2H-benzo[e][1,2]oxaborinine-8-carboxylic acid] | < 100 nM | < 100 nM | 100 to 1000 nM | C (C represents an MIC of <1 μg/mL) | B (B represents an MIC between 1 and 16 μg/mL inclusive) | C (C represents an MIC of <1 μg/mL) | B (B represents an MIC between 1 and 16 μg/mL inclusive) | B (B represents an MIC between 1 and 16 μg/mL inclusive) | B (B represents an MIC between 1 and 16 μg/mL inclusive) | < 100 nM | 100 to 1000 nM |
